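The compound was tested at five concentrations on cells cultured in 96-well plates, with a 48-hour exposure period. TGI is the concentration that stops growth completely.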
Tests used:
Assay in all cases: NCI-60 cell line screen, 48 h
BT-549 breast = tested on: BT-549 breast
COLO 205 colon = tested on: COLO 205 colon
DU-145 prostate = tested on: DU-145 prostate
HCT-15 colon = tested on: HCT-15 colon
K-562 leukemia = tested on: K-562 leukemia
LOX IMVI melanoma = tested on: LOX IMVI melanoma
MALME-3M melanoma = tested on: MALME-3M melanoma
MDA-MB-435 = tested on: MDA-MB-435
MDA-N = tested on: MDA-N
MOLT-4 leukemia = tested on: MOLT-4 leukemia
NCI-H226 lung = tested on: NCI-H226 lung
NCI-H23 lung = tested on: NCI-H23 lung
NCI-H522 lung = tested on: NCI-H522 lung
OVCAR-5 ovarian = tested on: OVCAR-5 ovarian
PC-3 prostate = tested on: PC-3 prostate
SK-MEL-28 melanoma = tested on: SK-MEL-28 melanoma
SK-OV-3 ovarian = tested on: SK-OV-3 ovarian
SN12C renal = tested on: SN12C renal
SNB-19 CNS = tested on: SNB-19 CNS
UO-31 renal = tested on: UO-31 renal

Row | SMILES | TGI (BT-549 breast) [µM] | TGI (COLO 205 colon) [µM] | TGI (DU-145 prostate) [µM] | TGI (HCT-15 colon) [µM] | TGI (K-562 leukemia) [µM] | TGI (LOX IMVI melanoma) [µM] | TGI (MALME-3M melanoma) [µM] | TGI (MDA-MB-435) [µM] | TGI (MDA-N) [µM] | TGI (MOLT-4 leukemia) [µM] | TGI (NCI-H226 lung) [µM] | TGI (NCI-H23 lung) [µM] | TGI (NCI-H522 lung) [µM] | TGI (OVCAR-5 ovarian) [µM] | TGI (PC-3 prostate) [µM] | TGI (SK-MEL-28 melanoma) [µM] | TGI (SK-OV-3 ovarian) [µM] | TGI (SN12C renal) [µM] | TGI (SNB-19 CNS) [µM] | TGI (UO-31 renal) [µM]
1 | O=C(c1ccco1)N(Cc1ccco1)C(=S)Nc1ccccc1 | 36.3 | 26.8 | > 100 | 36.2 | 40.8 | 27.1 | 44.2 | 30.2 | 38.1 | 27.6 | > 100 | 38.1 | 37.7 | > 100 | > 100 | 33.8 | > 100 | 45.4 | > 100 | 32.8
2 | Cc1cc(NS(=O)(=O)c2ccc(NC(=O)c3ccc4[nH]c5ccccc5c(=O)c4c3)cc2)no1 | > 100 | > 100 | > 100 | > 100 | > 100 | > 100 | > 100 | > 100 | > 100 | > 100 | > 100 | > 100 | > 100 | > 100 | > 100 | > 100 | > 100 | > 100 | > 100 | > 100
3 | COc1ccc(NC(=O)CC(=O)N2N=C(c3ccccc3)C(N=Nc3ccc(S(=O)(=O)CCOS(=O)(=O)O)cc3)C2=O)cc1 (stereo not drawn) | > 100 | > 100 | > 100 | > 100 | > 100 | > 100 | > 100 | > 100 | > 100 | > 100 | > 100 | > 100 | > 100 |  | > 100 | > 100 | > 100 | > 100 | > 100 | > 100
4 | CCN(CC)c1ccc(/C=C2/C[N+](C)(C)C/C(=C/c3ccc(N(CC)CC)cc3)C2=O)cc1 | 3.43 | 2.69 | > 50.6 | > 100 | 7.91 | 6.16 | 4.38 | 3.69 | 3.56 | 4.83 | 17.2 | 10.3 | 7.74 | 50.4 | 35.7 | 4.09 | > 78.5 | 16.4 | 19.4 | > 100
5 | S=C1Cc2c(-c3ccc(Cl)cc3)cc(-c3ccccc3)nc2-c2ccccc2N1 | 35 | 49.5 | > 100 | > 100 | > 100 | 35.2 | 35.9 | 46 | 30.4 | > 100 | 55.7 | 27.2 | 40.2 | 92.9 | 44 | > 100 | 25.7 | 31.3 | 21.5 | 35.8
6 | C=C1[C@H](OC(=O)C(C)C)[C@]23CC4(O)[C@@H]5[C@@]6(C)CCC[C@]57C([C@@H]2C[C@@]1(O)[C@H](O)[C@@H]73)N4C6 | > 100 | > 100 | > 100 | > 100 |  | > 100 | > 100 | > 100 | > 100 | > 100 | > 100 | > 100 | > 100 | > 100 | > 100 | > 100 | > 100 |  | > 100 | > 100
7 | CN(C)Cc1cc(N=Nc2cccc(Cl)c2)ccc1O | 34 | 38.5 | 27.9 | 20.5 | 12.8 | 16.6 | 31.6 | 15.8 | 23.9 | 32.5 | 50.7 | 57.9 | 23.9 | 30.1 | 38.1 | 26.9 | 37.9 | 95.3 | 51.3 | 23.3
8 | CN(C)c1ccc(/C=C(\NC(=O)c2ccccc2)C(=O)NCC(=O)O)cc1 | > 100 | > 100 | > 100 | > 100 | > 100 | > 100 | > 100 | > 100 | > 100 | > 100 | > 100 | > 100 | > 100 | > 100 | > 100 | > 100 | > 100 | > 100 | > 100 | > 100
9 | COc1ccc(/C=C/c2sc3ccccc3[n+]2CCCCI)cc1OC | > 10 |  | > 10 | > 10 | > 10 | > 10 | > 10 | > 10 | > 10 | > 10 | > 10 | > 10 | > 10 | > 10 | > 10 | > 10 | > 10 | > 10 | > 10 | > 10
10 | O=c1[nH]cnc2c1sc1nc3ccccc3n12 | > 100 | > 100 | > 100 | > 100 |  | > 100 | > 100 | > 100 | > 100 | > 100 | > 100 | > 100 | > 100 | > 100 | > 100 | > 100 | > 100 |  | > 100 | > 100
11 | N#Cc1n[nH]n(C2CCCCC2)c1=O | > 100 | > 100 | > 100 | > 100 |  | > 100 | > 100 | > 100 | > 100 | > 100 | > 100 | > 100 | > 100 | > 100 | > 100 | > 100 | > 100 | > 100 | > 100 | > 100
12 | O=Cc1c2ccccc2n2ccc3c4ccccc4[nH]c3c12 | > 10 | > 10 | > 10 | > 10 | > 10 | > 10 | > 10 | > 10 | > 10 | > 10 | > 10 | > 10 | > 10 | > 10 | > 10 |  | > 10 | > 10 | > 10 | > 10
13 | Cn1c(N)c(C(N)=O)[nH]c1=S | > 100 | > 100 | > 100 | > 100 | > 100 | > 100 | > 100 | > 100 | > 100 | > 100 | > 100 | > 100 | > 100 | > 100 | > 100 | > 100 | > 100 | > 100 | > 100 | > 100
14 | COC(=O)[C@H](Cc1ccccc1)NC(=O)N1CCCN(C(=O)N[C@@H](Cc2ccccc2)C(=O)OC)CCCN(C(=O)N[C@@H](Cc2ccccc2)C(=O)OC)CCC1 | 57.1 | 34.8 | 34 | 63.4 | > 100 | 29.8 | 34.1 | 54.7 | 45.8 | 40.8 | 31.5 | 53.3 | 35.2 | 33 | 31.1 | 35.4 | 73.9 | 39.1 | 74.8 | 29.4
15 | CC(=O)NNc1nc(C)c(C(/C=C/c2ccc([N+](=O)[O-])cc2)=N/N)s1 | > 100 | > 100 | > 100 | > 100 | > 100 | > 100 | > 100 | > 100 | > 100 | > 100 | > 100 | > 100 | > 100 | > 100 | > 100 | > 100 | > 100 | > 100 | > 100 | > 100
16 | COC(=O)C1=C(C(=O)OC)C(Cc2ccccc2)(OO)OC1=O (stereo not drawn) | 26.3 | > 100 | > 100 | 16 | 63.7 | 22.8 | 24.5 | > 100 | > 100 | 30.8 | 35.9 | 44.4 | 6.71 | 54.2 | > 100 | > 100 | 94.4 | 98 | 58.9 | 26.9
17 | COC(=O)C1CCOC(C)N1C(=O)OC(C)(C)C (stereo not drawn) | > 100 | > 100 | > 100 | > 100 | > 100 | > 100 | > 100 | > 100 | > 100 | > 100 | > 100 | > 100 | > 100 | > 100 | > 100 | > 100 | > 100 | > 100 | > 100 | > 100
18 | O=S(=O)(O)CCCC1S(=O)(=O)OCCOS1(=O)=O | > 100 | > 100 | > 100 | > 100 |  | > 100 | > 100 | > 100 | > 100 |  | > 100 | > 100 | > 100 | > 100 | > 100 | > 100 | > 100 |  | > 100 | > 100
19 | Cc1ncc([N+](=O)[O-])n1CCN(C)C(=O)CCCn1ccnc1[N+](=O)[O-] | > 100 | > 100 | > 100 | > 100 | > 100 | > 100 | > 100 | > 100 | > 100 | > 100 | > 100 | > 100 | > 100 | > 100 | > 100 | > 100 | > 100 | > 100 |  | > 100

Source: PubChem BioAssay (NCI)
